# In the Kinase Knowledgebase extract (Sharma et al. 2016):
# pIC50: −log10 of the molar value.
# Experiments:
# PIK3CA (human) = PIK3CA (human) (UniProt P42336); assay: Assessment of PIK3CA Kinase Activity
# PIK3CG (human) = PIK3CG (human) (UniProt P48736); assay: Assessment of PIK3CG Kinase Activity
# Chain of PIK3CG (human) (P48736 whole entry, looked up): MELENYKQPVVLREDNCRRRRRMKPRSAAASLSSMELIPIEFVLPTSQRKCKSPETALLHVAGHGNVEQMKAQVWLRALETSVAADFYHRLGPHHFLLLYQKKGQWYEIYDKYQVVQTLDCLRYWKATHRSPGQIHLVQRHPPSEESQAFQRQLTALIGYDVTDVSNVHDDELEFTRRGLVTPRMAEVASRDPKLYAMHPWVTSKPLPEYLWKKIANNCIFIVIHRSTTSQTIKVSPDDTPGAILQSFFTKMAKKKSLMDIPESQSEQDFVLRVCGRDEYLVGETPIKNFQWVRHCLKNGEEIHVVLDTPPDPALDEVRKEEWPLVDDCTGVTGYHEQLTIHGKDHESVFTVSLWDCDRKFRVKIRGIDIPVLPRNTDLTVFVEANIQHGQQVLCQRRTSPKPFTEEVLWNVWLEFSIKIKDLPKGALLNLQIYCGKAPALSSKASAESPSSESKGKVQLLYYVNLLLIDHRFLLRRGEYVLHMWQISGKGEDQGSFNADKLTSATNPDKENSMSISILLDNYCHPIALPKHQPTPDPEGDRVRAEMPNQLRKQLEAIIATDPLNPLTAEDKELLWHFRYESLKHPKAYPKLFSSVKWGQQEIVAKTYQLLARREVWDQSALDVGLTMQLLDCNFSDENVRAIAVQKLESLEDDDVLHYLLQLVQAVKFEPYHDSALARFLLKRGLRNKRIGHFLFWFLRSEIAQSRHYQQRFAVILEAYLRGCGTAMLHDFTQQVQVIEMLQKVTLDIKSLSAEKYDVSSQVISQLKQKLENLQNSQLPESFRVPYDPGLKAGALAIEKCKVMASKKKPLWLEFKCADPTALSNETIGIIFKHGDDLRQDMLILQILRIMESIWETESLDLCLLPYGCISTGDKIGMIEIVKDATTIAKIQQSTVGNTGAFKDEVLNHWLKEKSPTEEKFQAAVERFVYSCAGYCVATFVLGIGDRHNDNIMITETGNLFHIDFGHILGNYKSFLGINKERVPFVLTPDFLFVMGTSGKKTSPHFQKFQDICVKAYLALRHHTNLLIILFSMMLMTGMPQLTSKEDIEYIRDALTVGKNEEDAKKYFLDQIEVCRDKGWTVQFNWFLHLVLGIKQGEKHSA
# Chain of PIK3CA (human) (P42336 whole entry, looked up): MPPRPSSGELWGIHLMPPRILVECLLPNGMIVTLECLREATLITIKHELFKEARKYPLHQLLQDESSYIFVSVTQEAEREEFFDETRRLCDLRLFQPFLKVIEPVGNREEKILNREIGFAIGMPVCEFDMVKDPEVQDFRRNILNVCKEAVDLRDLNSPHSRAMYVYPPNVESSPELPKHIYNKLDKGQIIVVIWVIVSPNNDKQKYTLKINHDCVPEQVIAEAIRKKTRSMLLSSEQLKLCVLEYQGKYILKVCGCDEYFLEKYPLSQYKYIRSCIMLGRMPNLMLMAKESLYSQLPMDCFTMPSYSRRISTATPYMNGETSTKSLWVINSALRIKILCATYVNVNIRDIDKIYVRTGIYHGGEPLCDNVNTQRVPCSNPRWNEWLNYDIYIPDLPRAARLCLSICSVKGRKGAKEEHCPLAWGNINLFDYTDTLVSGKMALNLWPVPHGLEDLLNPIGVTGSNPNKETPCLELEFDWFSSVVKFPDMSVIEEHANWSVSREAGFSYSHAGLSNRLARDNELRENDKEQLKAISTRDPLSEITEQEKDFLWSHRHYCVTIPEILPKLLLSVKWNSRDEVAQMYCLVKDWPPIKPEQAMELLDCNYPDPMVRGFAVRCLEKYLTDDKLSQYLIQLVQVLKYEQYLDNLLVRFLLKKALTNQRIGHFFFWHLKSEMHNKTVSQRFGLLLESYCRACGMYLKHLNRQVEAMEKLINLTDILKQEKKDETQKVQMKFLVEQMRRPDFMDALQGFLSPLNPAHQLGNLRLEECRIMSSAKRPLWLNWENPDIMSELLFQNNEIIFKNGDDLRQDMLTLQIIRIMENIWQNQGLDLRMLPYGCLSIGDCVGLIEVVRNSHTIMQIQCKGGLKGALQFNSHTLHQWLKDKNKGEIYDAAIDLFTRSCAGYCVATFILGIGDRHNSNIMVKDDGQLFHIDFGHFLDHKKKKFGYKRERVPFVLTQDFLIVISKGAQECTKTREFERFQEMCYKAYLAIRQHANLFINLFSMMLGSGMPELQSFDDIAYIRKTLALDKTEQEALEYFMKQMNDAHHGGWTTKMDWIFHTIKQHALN
pIC50 (PIK3CA (human)),pIC50 (PIK3CG (human)),Structure (SMILES)
5.74,5.09,CCn1ncc2c(N3CC4CCC(C3)O4)nc(-c3ccc(NC(=O)NC(=O)CCNCCN(C)C)cc3)nc21
–,5.69,O=C(Nc1ccc(-c2nc(N3CC4CCC(C3)O4)c3cnn([C@H]4CC[C@]5(CCCO5)CC4)c3n2)cc1)OCCO
–,5.00,O=C(NCCO)Nc1ccc(-c2nc(N3CC4CCC(C3)O4)c3sccc3n2)cc1
–,5.70,O=C(Nc1ccc(-c2nc(N3CC4CCC(C3)O4)c3cnn([C@H]4CC[C@]5(CCCO5)CC4)c3n2)cc1)Nc1ccc(N2CCNCC2)cc1
6.51,6.31,CCn1ncc2c(N3CC4CCC(C3)O4)nc(-c3ccc(NC(=O)NC(=O)CNCCN(C)C)cc3)nc21
5.98,5.56,CC(=O)Nc1ccc(NC(=O)Nc2ccc(-c3nc(N4CC5CCC(C4)O5)c4cnn(C)c4n3)cc2)cc1
–,6.08,COC1CCC(n2ncc3c(N4CC5CCC(C4)O5)nc(-c4ccc(NC(=O)Nc5ccncc5)cc4)nc32)CC1 (stereo not given)
–,5.00,O=C(Nc1ccc(-c2nc(N3CC4CCC(C3)O4)c3sccc3n2)cc1)NC1CC1
6.46,5.85,CN(C)CC(=O)Nc1ccc(NC(=O)Nc2ccc(-c3nc(N4CC5CCC(C4)O5)c4cnn(C)c4n3)cc2)cc1
–,5.65,O=C(Nc1ccncc1)Nc1ccc(-c2nc(N3CC4CCC(C3)O4)c3cnn([C@H]4CC[C@]5(CCCO5)CC4)c3n2)cc1
–,5.84,CN1CCN(c2ccc(NC(=O)Nc3ccc(-c4nc(N5CC6CCC(C5)O6)c5cnn([C@H]6CC[C@]7(CCCO7)CC6)c5n4)cc3)cc2)CC1
